Laboratory results taken from US20260234150A1, “COMPOUND FOR INHIBITING NLRP3, PREPARATION METHOD, AND USE” (DOVETREE MEDICINES UNUS, INC., priority 2023, published 2026).

What was measured:
[1] = target: T1, His6-Flag-TEV-NLRP3 (134-1036) (Homo sapiens, UniProt Q96P20); test: NLRP3 fluorescence polarization (FP) binding assay, competition with probe NP3-301; conditions: competition with NP3-301 for binding to NLRP3 (134-1036), 30 nM protein
T1 construct: fused on or other part: N-terminal His6 tag, Flag tag and TEV cleavage site
T1 sequence (Q96P20 134-1036 limits assumed): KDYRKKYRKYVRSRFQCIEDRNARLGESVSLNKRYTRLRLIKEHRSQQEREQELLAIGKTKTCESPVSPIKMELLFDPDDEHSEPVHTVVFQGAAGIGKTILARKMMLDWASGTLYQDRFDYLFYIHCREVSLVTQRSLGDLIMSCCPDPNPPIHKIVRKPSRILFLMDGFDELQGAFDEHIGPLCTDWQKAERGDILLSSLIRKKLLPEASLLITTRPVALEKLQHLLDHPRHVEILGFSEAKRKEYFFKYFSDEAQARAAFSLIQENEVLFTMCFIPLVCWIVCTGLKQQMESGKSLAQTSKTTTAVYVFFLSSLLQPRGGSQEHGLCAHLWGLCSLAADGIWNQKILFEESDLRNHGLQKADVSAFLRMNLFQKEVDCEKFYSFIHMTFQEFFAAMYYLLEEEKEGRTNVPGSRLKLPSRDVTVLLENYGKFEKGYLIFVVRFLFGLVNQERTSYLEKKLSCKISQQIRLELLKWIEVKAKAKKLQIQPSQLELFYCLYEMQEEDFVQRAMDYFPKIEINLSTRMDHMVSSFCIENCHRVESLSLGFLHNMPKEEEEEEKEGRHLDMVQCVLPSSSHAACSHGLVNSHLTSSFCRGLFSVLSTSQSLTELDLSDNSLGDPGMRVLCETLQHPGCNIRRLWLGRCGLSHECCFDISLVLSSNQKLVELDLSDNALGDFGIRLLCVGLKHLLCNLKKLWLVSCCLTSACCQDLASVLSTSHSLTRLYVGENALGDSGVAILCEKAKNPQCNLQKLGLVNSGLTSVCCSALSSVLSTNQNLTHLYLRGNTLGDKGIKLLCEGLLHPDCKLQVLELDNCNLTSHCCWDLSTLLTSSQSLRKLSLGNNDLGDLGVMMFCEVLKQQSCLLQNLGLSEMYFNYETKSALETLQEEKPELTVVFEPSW
Experimental: This experiment uses fluorescence polarization technology to detect and evaluate the binding assay.
The fluorescent probe used in this assay is the compound NP3-301 in the Journal of Molecular Biology (2021) 433, 167309, which was synthesized with reference to this literature.
His6-Flag-TEV-NLRP3 (134-1036) protein (SEQ NO. 1) was purchased from Kaihuiruizhi Biotech (Shanghai) Co., Ltd. (ChemPartner), and was customed for expression.
Prepare 1× assay buffer: 50 mM Hepes, pH 7.4, 150 mM NaCl, 2.5 mM MgCl2, 0.005% Tween-20, 1 mM TCEP, 100 μM ATP.
First, 2.5 μL of 4× compound solution was added to a black shallow 384-well plate (Greiner, 784076), the shallow well plate was sealed, and centrifuged at 1000 rpm for 1 min; then 2× NLPR3 protein solution (final concentration of 30 nM) was added, the shallow well plate was sealed, centrifuged at 1000 rpm for 1 min, and incubated at room temperature for 60 min. Finally, 2.5 μL of 4× NP3-301 (final concentration of 0.5 nM) was added, the shallow well plate was sealed, centrifuged at 1000 rpm for 1 min, and incubated at room temperature for 30 min. Envision was used to read the fluorescence polarization values of λex=485+20 nm and kem=535+25 nm. GraphPad Prism 9.5.0 was used to analyze the data, and the IC50 value of the competition between the compound and NP3-301 for binding to His6-Flag-TEV-NLRP3 (134-1036) was fitted by four-parameter logistic. The compounds of the present disclosure have good NLRP3 binding activity, and the test results of some representative compounds are shown in Table 1.

[2] = tested on: IL-1β secretion of THP-1 cells; test: Effect of NLRP3 inhibitor on IL-1β secretion of THP-1 cells (AlphaLISA); assay type: cell-based; conditions: Homo sapiens; PMA, LPS and Nigericin stimulated THP-1 cells, IL-1β in supernatant; read-out: IC50 (nM), THP-1 cells to detect NLRP3 inhibitors
Experimental: This experiment used the PerkinElmer AlphaLISA_human_IL1β kit (AL220 C/F). The detection buffer was RPMI-1640+10FBS. AlphaLISA Immunoassay Buffer, AlphaLISA Anti-IL1β Acceptor beads, Streptavidin (SA)-coated Donor beads, and Biotinylated Antibody Anti-IL1β were all included in the kit.
The density of THP1 cells was adjusted to 4×10^5 cells/mL, PMA (final concentration 50 nM) was added, inoculated into 96-well flat-bottom plates at 200 μL/well, and stimulated overnight at 37° C., 5% CO2 (try to <16h). The next day, the supernatant was discarded, and the flat washed twice with DPBS ([…]/time). Then LPS solution (final concentration of 100 ng/ml) was added at 198 μL/well, incubated at 37° C., 5% CO2 for 3h. 1 μL of the corresponding concentration of compounds was added to each well according to the experimental MAP, incubated at 37° C., 5% CO2 for 1 h. 1 μL Nigericin (final concentration of […]) was added to each well, incubated overnight at 5% CO2 (>18h). On the third day, 5 μL of supernatant was taken, diluted 20 times, and the content of IL-Iβ in the supernatant was detected by Human Interleukin 1 beta (IL1β) Kit. Envision was used to read the AlphaLISA test value of Ex=680/[…]. GraphPad Prism 9.5.0 was used to analyze the data, and the IC50 value of the compound for IL-Iβ antagonism was fitted by four-parameter Logistic.

IC50 [1] [nM] | IC50 [2] [nM] | Compound
≤ 100 | 100 to 500 | Cc1cc(C(F)(F)F)cc(O)c1-c1ccc2[nH]c(CC(N)=O)nc2n1 [Compound 5]
 | 100 to 500 | Cc1cc(C(F)(F)F)cc(O)c1-c1ccc2[nH]c(NCC(C)(C)O)nc2n1 [Compound 6]
≤ 100 | 50 to 100 | Cc1cc(C(F)(F)F)cc(O)c1-c1ccc2[nH]c(C3CCCNC3)nc2n1 (stereo not drawn) [Compound 9]
≤ 100 | 100 to 500 | CCN1CCCC(c2nc3nc(-c4c(C)cc(C(F)(F)F)cc4O)ccc3[nH]2)C1 (stereo not drawn) [Compound 10]
≤ 100 | < 50 | CCN1CCC[C@@H](n2ccc3cc(-c4c(C)cc(C(F)(F)F)cc4O)nnc32)C1 [Compound 11-a]
≤ 100 | < 50 | CCN1CCCC(n2ccc3cc(-c4c(C)cc(C(F)(F)F)cc4O)nnc32)C1 (stereo not drawn) [Compound 11]
≤ 100 | < 50 | CCN1CCC[C@@H](N2CC(=O)Nc3cc(-c4c(C)cc(C(F)(F)F)cc4O)nnc32)C1 [Compound 12-a]
≤ 100 | 100 to 500 | CCN1CCCC(N2CC(=O)Nc3cc(-c4c(C)cc(C(F)(F)F)cc4O)nnc32)C1 (stereo not drawn) [Compound 12]
≤ 100 | 50 to 100 | Cc1cc(C(F)(F)F)cc(O)c1-c1ccc2oc(N)nc2n1 [Compound 14]
≤ 100 | 50 to 100 | Cc1cc(C(F)(F)F)cc(O)c1-c1ccc2oc(NC[C@@H]3COCCN3C(=O)C(F)(F)F)nc2n1 [Compound 247]
≤ 100 | 100 to 500 | Cc1cc(C(F)(F)F)cc(O)c1-c1ccc2oc(NC[C@@H]3COCCN3C(=O)C(C)C)nc2n1 [Compound 248]
≤ 100 | 100 to 500 | Cc1cc(C(F)(F)F)cc(O)c1-c1ccc2oc(NC[C@@H]3COCCN3C(=O)C(F)F)nc2n1 [Compound 249]
≤ 100 | 100 to 500 | CCC(=O)N1CCOC[C@H]1CNc1nc2nc(-c3c(C)cc(C(F)(F)F)cc3O)ccc2o1 [Compound 250]
≤ 100 | < 50 | CC(=O)N1CCOC[C@H]1CNc1nc2nc(-c3c(C)cc(Cl)cc3O)ccc2o1 [Compound 253]
≤ 100 | < 50 | Cc1cc(C(F)(F)F)cc(O)c1-c1ccc2oc(NC[C@@H]3COCCN3C(=O)C3CC3)nc2n1 [Compound 257]
≤ 100 | < 50 | Cc1cc(C(F)(F)F)cc(O)c1-c1ccc2oc(NC[C@@H]3COCCN3S(=O)(=O)C3CC3)nc2n1 [Compound 260]
≤ 100 | 50 to 100 | Cc1cc(C(F)(F)F)cc(O)c1-c1ccc2oc(N3CCOC[C@H]3C)nc2n1 [Compound 371]
≤ 100 | < 50 | Oc1cc(Cl)cc(O)c1-c1ccc2oc(N3CCOCC3)nc2n1 [Compound 376]
≤ 100 | 100 to 500 | Cc1cc(C(F)(F)F)cc(O)c1-c1ccc2oc(N3CC4CCC(C3)O4)nc2n1 [Compound 381]
≤ 100 | 50 to 100 | Cc1cc(Cl)cc(O)c1-c1ccc2oc(N3CCS(=O)(=O)CC3)nc2n1 [Compound 387]
≤ 100 | 50 to 100 | CCS(=O)(=O)N1CCN(c2nc3nc(-c4c(C)cc(C(F)(F)F)cc4O)ccc3o2)CC1 [Compound 388]
≤ 100 | < 50 | Cc1cc(C(F)(F)F)cc(O)c1-c1ccc2oc(N3CCN(S(C)(=O)=O)CC3)nc2n1 [Compound 390]
≤ 100 |  | Cc1cc(C(F)(F)F)cc(O)c1-c1ccn2nc(N[C@@H]3CCCN(CCO)C3)nc2n1 [Compound 455]
100 to 500 |  | CC(=O)N1CCOC[C@H]1CNc1nc2nc(-c3c(C)cc(C(F)(F)F)cc3O)cc(C)n2n1 [Compound 457]
≤ 100 |  | Cc1cc(-c2ccc(C(F)(F)F)cc2O)nc2nc(N3CCOCC3)nn12 [Compound 458]
> 1000 |  | Cc1cc(C(F)(F)F)c(Cl)c(O)c1-c1ccn2nc(N3CCOCC3)nc2n1 [Compound 459]
100 to 500 |  | CC(=O)N1CCC[C@@H](Nc2nc3nc(-c4c(C)cc(C(F)(F)F)cc4O)ncc3[nH]2)C1 [Compound 461]
